Results from patent publication US20080038321A1, “PROPHYLACTIC/THERAPEUTIC COMPOSITIONS FOR LIVER DISEASES” (Ajinomoto Co., Inc., priority 2004, published 2008).
“Also recorded” adds a separate entry of the source.

How the values were obtained:
CPT-1 = assay: Liver gene expression in high-fat diet GK rats after 6-week administration (quantitative PCR): CPT-1; format: in vivo, rat
Excerpt: (§1) The mRNA levels are expressed while defining the level in the SD group as 1.00. <Primer Sequence>

HNF-4α = HNF-4α mRNA in Fao cells with L-Asp, L-Ala or both (quantitative PCR); format: cell-based, rat; settings: 3 h, L-Asp 0.05 mM, L-Ala 0.03 mM or both
Protocol: Whether the suppressive effect of L-Asp on TRB3 expression in rat hepatocyte-derived Fao cells is increased by adding L-Ala as another amino acid was studied. Whether the expression of HNF-4α is increased was also studied. Fao cells were inoculated on a 24-well plate to an amount of 2×10^5 cells/well, and the cells were cultivated in a 10% fetal bovine serum-containing RPMI 1640 medium (supplied from Nacalai Tesque, Inc.; Code No. 30264-85) at 37° C. in an atmosphere of 5% CO2 overnight. On the following day, the medium was replaced with one of a 10% fetal bovine serum-containing RPMI medium from which all amino acids had been removed (minus amino acid medium; Table 1) and media corresponding to the minus amino acid medium, except with L-Asp (concentration: 0.05 mM), L-Ala (concentration: 0.03 mM), or both added, and the cells were further cultivated at 37° C. in 2.5% CO2 atmosphere for three hours. RNAs were extracted from the cultured cells, and the TRB3 mRNA levels and the HNF-4α mRNA levels were determined through quantitative polymerase chain reaction (PCR) (Table 10).

[1] = test system: Wistar rats fed with high-fat diets; assay: Wistar rats fed with high-fat diets: body weight and liver triglyceride; format: in vivo, rat
Excerpt: Pharmacological actions of L-Asp were identified using Wistar rats fed with high-fat diets.
These triglyceride contents were converted into total triglyceride contents in the entire liver.

TRB3 [2] = assay: Suppressive effects of amino acids on TRB3 expression in cultured hepatocytes (Fao cells, quantitative PCR); format: cell-based, rat; settings: 3 h, minus amino acid medium plus one L-amino acid 1 mM (or standard medium), mRNA, minus amino acid medium = 1.00, n = 4, mean ± SD
Protocol: Suppressive effects of twenty-two amino acids on TRB3 expression in rat hepatic cancer-derived Fao cells were examined.
The standard medium is a medium corresponding to the minus amino acid medium, except for further containing amino acids listed in Table 2.
RNAs were extracted from the cultured cells, the expression levels of TRB3 gene were determined through quantitative polymerase chain reaction (PCR), and the suppressive effects of amino acids on TRB3 expression were determined and compared with data of TRB3 expression induced upon amino acid starvation. The gene expression was corrected with reference to β-actin expression level. The correction was carried out in the same manner in the after-mentioned genes.
The data were corrected and expressed while taking the average of TRB3 mRNA levels after three-hour cultivation in the minus amino acid medium as 1.00.

G6Pase = assay: Liver gene expression in high-fat diet GK rats after 6-week administration (quantitative PCR): G6Pase; format: in vivo, rat
Excerpt: as §1

TRB3 [3] = assay: Liver gene expression in high-fat diet GK rats after 6-week administration (quantitative PCR): TRB3; format: in vivo, rat
Excerpt: as §1

GK rats = assay: Long-term L-Asp in diet to GK rats: fasting blood glucose and insulin; format: in vivo, rat; settings: 3% L-Asp-containing diet (3AS), 6 weeks, n = 5, mean ± SD
Protocol: Specifically, L-Asp as mixed in a diet was administered to GK rats over a long time, and the effect of the administration on gene expression in the liver and disease state was determined.
Male 6-week-old GK rats were purchased, pre-fed for one week, grouped into the following groups each including five rats, the diet was replaced with experimental diets, and the rats were fed with the experimental diets for eight weeks.
CON group: administered with a control diet
3AS group: administered with a 3% L-Asp-containing diet
6AS group: administered with a 6% L-Asp-containing diet
The fasting blood glucose level is generally considered to be an index reflecting the basal insulin secretion and the insulin resistance.

[4] = test system: glucose-6-phosphatase (G6Pase); assay: Effect of L-Asp on G6Pase expression suppressive action of insulin in Fao cells (quantitative PCR); format: cell-based, rat; settings: for G6Pase expression level: 6 h, -Asp RPMI without insulin = 1.00; for G6Pase expression level (value in parentheses): -Asp RPMI at same insulin concentration = 1.00
Protocol: To verify whether an amino acid showing a TRB3 expression suppressive action actually increases the insulin action on hepatocytes, how L-Asp acts on glucose-6-phosphatase (G6Pase) expression suppressive action of insulin in rat hepatic cancer-derived Fao cells was studied.
Fao cells were inoculated on a 24-well plate and cultured overnight. Thereafter, 0, 0.3, and 1.0 mM L-Asp and 0, 10^−10, 10^−8, and 10^−6 M insulin were added respectively to a basal medium corresponding to RPMI 1640 medium containing no glucose but 0.1% BSA, except with L-Asp being removed therefrom, and the cells were further cultivated for six hours. RNAs were extracted from the cultured cells, and the expression levels of G6Pase were determined through quantitative PCR.
The G6Pase expression level in −Asp RPMI medium added with no insulin is defined as 1.00.
The values in the parentheses are values while defining the G6Pase expression levels in −Asp RPMI medium at respective insulin concentrations as 1.00, respectively.

[5] = test system: stearoyl-Coenzyme A desaturase 1 (SCD1) gene; assay: Liver gene expression profiling in GK rats (Gene Chip Rat Genome U34A Array): SCD1; format: in vivo; settings: 8 weeks, CON group = 1.00
Protocol: (§2) Gene expression profiling was conducted using samples containing equivalent amounts of genes in the liver of individuals in the individual groups. The gene expression profiling was carried out with the Gene Chip Rat Genome U34A Array (Affymetrix Inc.). […] This is because the two genes relate to steatogenesis.
(§3) The mRNA levels are expressed while defining the level in the CON group as 1.00.

malic enzyme (ME) gene = assay: Liver gene expression profiling in GK rats (Gene Chip Rat Genome U34A Array): ME; format: in vivo; settings: 8 weeks, CON group = 1.00
Protocol: as §2, §3

[6] = test system: GK rats fed with high-fat diets; assay: GK rats fed with high-fat diets: body weight, fasting glucose, insulin, triglyceride, liver triglyceride
[7] = test system: GK rats fed with high-fat diets; settings: rat, in vivo
[8] = HFD + Asp, HFD = 1.00 in table, n = 6, mean
[9] = before administration (baseline), HFD with about 6% L-Asp or 0.01% pioglitazone
[10] = week 3, HFD with about 6% L-Asp or 0.01% pioglitazone
[11] = week 6, HFD with about 6% L-Asp or 0.01% pioglitazone

N[C@@H](CC(=O)O)C(=O)O [L-Asp, L-aspartic acid]
CPT-1 mRNA level in liver (CPT-1; HFD + Asp, 6-week administration, HFD = 1.00 in table, n = 6, mean): 1.20
CPT-1 gene expression (CPT-1; L-Asp administration, 6 weeks, HFD): 1.20 time
expression level of HNF-4α mRNA (HNF-4α): 1.3 time
HNF4α mRNA level (HNF-4α; minus amino acid medium = 1.00): 1.30
Body weight ([1]; before administration (baseline), HFD plus about 6% L-Asp, n = 6): 328 ± 9 g
triglyceride content ([1]; four weeks, HFD plus Asp group, HFD group 57.6): 43.4 mg per 1 g of the liver
total triglyceride content in the liver ([1]; four weeks, HFD plus Asp group, HFD group 1047.5): 743.4 mg
Triglyceride content in liver ([1]; week 4, HFD plus about 6% L-Asp): 43 ± 10 mg/g
Body weight ([1]; week 4, HFD plus about 6% L-Asp, n = 6): tended to have a decreased body weight
Body weight ([1]; week 4, HFD plus about 6% L-Asp, n = 6, listed as Asp): 474 ± 20 g
TRB3 expression level (TRB3 [2]): 0.724 ± 0.13
TRB3 expression level (TRB3 [2]; listed as aspartic acid): significantly suppressed TRB3 expression
G6Pase mRNA level in liver (G6Pase; [8]): 0.52
G6Pase expression relative to HFD group (G6Pase; HFD plus Asp group): 0.52 time
TRB3 mRNA level in liver (TRB3 [3]; [8]): 0.58
TRB3 expression relative to HFD group (TRB3 [3]; HFD plus Asp group): 0.58 time
Fasting blood glucose level (GK rats): 151 ± 4.8 mg/dL
G6Pase expression level ([4]; 0.3 mM Asp, insulin 0 M): 0.603
G6Pase expression level (value in parentheses) ([4]; 0.3 mM Asp, insulin 0 M): 0.60
G6Pase expression level ([4]; 0.3 mM Asp, insulin 10^-6 M): 0.014
G6Pase expression level (value in parentheses) ([4]; 0.3 mM Asp, insulin 10^-6 M): 0.60
G6Pase expression level ([4]; 0.3 mM Asp, insulin 10^-8 M): 0.022
G6Pase expression level (value in parentheses) ([4]; 0.3 mM Asp, insulin 10^-8 M): 0.70
G6Pase expression level ([4]; 0.3 mM Asp, insulin 10^-10 M): 0.100
G6Pase expression level (value in parentheses) ([4]; 0.3 mM Asp, insulin 10^-10 M): 0.67
G6Pase expression level ([4]; 1 mM Asp, insulin 0 M): 0.397
G6Pase expression level (value in parentheses) ([4]; 1 mM Asp, insulin 0 M): 0.40
G6Pase expression level ([4]; 1 mM Asp, insulin 10^-6 M): 0.008
G6Pase expression level (value in parentheses) ([4]; 1 mM Asp, insulin 10^-6 M): 0.36
G6Pase expression level ([4]; 1 mM Asp, insulin 10^-8 M): 0.016
G6Pase expression level (value in parentheses) ([4]; 1 mM Asp, insulin 10^-8 M): 0.52
G6Pase expression level ([4]; 1 mM Asp, insulin 10^-10 M): 0.076
G6Pase expression level (value in parentheses) ([4]; 1 mM Asp, insulin 10^-10 M): 0.51
G6Pase expression suppressive action ([4]; L-Asp alone, glucose starvation): G6Pase expression suppressive action even if used alone
G6Pase expression suppression ([4]; L-Asp in combination with insulin): increased G6Pase expression suppression when used in combination with insulin
SCD1 mRNA level in liver ([5]; 3% L-Asp diet (3AS)): 0.78
SCD1 mRNA level in liver ([5]; 6% L-Asp diet (6AS)): 0.71
ME mRNA level in liver (malic enzyme (ME) gene; 3% L-Asp diet (3AS)): 0.55
ME mRNA level in liver (malic enzyme (ME) gene; 6% L-Asp diet (6AS)): 0.62
lipid droplet accumulation around the hepatic portal vein region (histological study) ([6]; HFD plus Asp group): improved (reduced) lipid droplet accumulation
increase in fasting blood glucose level and fasting plasma insulin level (insulin resistance) ([6]; HFD plus Asp group compared with HFD group): less increase in these parameters; also recorded: substantially equivalent to that of the pioglitazone group
fasting plasma triglyceride ([6]; HFD plus Asp group compared with SD group): decreased fasting plasma triglyceride
Fasting blood glucose level [6, 9]: 100 ± 8 mg/dL
Fasting insulin level [6, 9]: 0.5 ± 0.3 ng/mL
Fasting triglyceride level [6, 9]: 92 ± 20 mg/dL
Fasting blood glucose level [6, 10]: 124 ± 7 mg/dL
Fasting insulin level [6, 10]: 1.6 ± 0.4 ng/mL
Fasting triglyceride level [6, 10]: 77 ± 14 mg/dL
Fasting blood glucose level [6, 11]: 110 ± 10 mg/dL
Fasting insulin level [6, 11]: 1.5 ± 0.2 ng/mL
Fasting triglyceride level [6, 11]: 70 ± 16 mg/dL
Triglyceride content in liver [6, 11]: 28 ± 5 mg/g
Body weight [7]: 221 ± 11 g
